Assay results reported in patent US8119630B2 (Arrow Therapeutics Limited, priority 2002, dated 2012).

Test system: RSV
Test: XTT assay, RSV-infected Vero cells
Type: cell-based, Respiratory Syncytial Virus (RSV)
Settings: Table 1; Vero cells infected with RSV, m.o.i.≈0.2, 6 days at 33° C.; read-out: XTT IC50
Description: Examples 1 to 74 and 83 to 124 were tested using the following protocol.
The inner 60 wells of 96 well tissue culture plates were seeded with Vero cells at 3×10^4 cells/well (1×10^4 cells/well for toxicity studies) in 100 or 150 μl of medium and incubated at 37° C. overnight or until nearing confluency. For primary screen, 25 μl compounds were added directly to 100 μl medium in single wells to duplicate plates. A third plate was prepared for simultaneous toxicity investigation.
For follow-up investigation, 70 μl of compound in duplicate wells were added directly to culture medium at 3.2× final concentration and ½ log serially diluted down columns of plate. A duplicate plate was prepared for simultaneous toxicity investigation.
Cells were infected with 25 μl RSV to give m.o.i.≈0.2. Some 100 μl of sterile distilled water were added to the outer wells of the plate and incubated at 33° C. for 6 days. Some 0.25 μl/ml PMS were added to stock XTT solution, final conc. […]. Then 25 μl warmed XTT/PMS solution were added to each well and incubated for 5 hours at 37° C. Plates were shaken (DynaTech Vari-Shaker) vigorously for 10 mins and allowed to cool for 15 mins before sealing. Absorbance at 450 nm was measured and data analysed using Microsoft Excel software.
Maximum OD450nm reading (uninfected, untreated control cells) corresponded to 100% inhibition. Minimum OD450nm readings (infected control cells) corresponded to 0% inhibition. Log 10 concentration was plotted against OD450nm and IC50 (Table 1) values were calculated from either reading 50% value from graph or using regression analysis.

Point of comparison: `O=C(NC1N=C(c2ccccc2)c2ccccc2NC1=O)C1CCCCC1` (centres unmarked) [Example 8], IC50 2 µM. Against it:
- COc1ccc(C(=O)NC2N=C(c3ccccc3)c3ccccc3NC2=O)cc1 (centres unmarked) [Example 10, 4-Methoxy N-(2-oxo-5-phenyl-2,3-dihydro-1H-benzo[e][1,4]diazepin-3-yl)-benzamide] — within 1.5-fold, 1.5 µM
- O=C1Nc2ccccc2C(c2ccccc2)=NC1NC(=O)N1CCCCC1 (centres unmarked) [Example 16] — the same, 2 µM

Same assay, conditions: human respiratory syncytial virus, 144 h; Table 1; Vero cells infected with RSV, m.o.i.≈0.2, 6 days at 33° C.; read-out: XTT IC50

`O=C(Nc1ccc(Cl)cc1)NC1N=C(c2ccccc2)c2ccccc2NC1=O` (centres unmarked) [Example 71, 1-(4-Chloro-phenyl)-3-(2-oxo-5-phenyl-2,3-dihydro-1H-benzo[e][1,4]diazepin-3-yl)-urea] was tested, and the IC50 was 3 µM.

Same assay, conditions: human respiratory syncytial virus, Vero, 144 h, read-out: XTT IC50 (uM), Table 1; Vero cells infected with RSV, m.o.i.≈0.2, 6 days at 33° C.

Point of comparison: `COc1ccccc1CC(=O)NC1N=C(c2ccccc2)c2ccccc2NC1=O` (centres unmarked) [Example 60, 2-(2-Methoxy-phenyl)-N-(2-oxo-5-phenyl-2,3-dihydro-1H-benzo[e][1,4]diazepin-3-yl)-acetamide], IC50 5 µM. Against it:
- O=C(NC1N=C(c2ccccc2)c2ccccc2NC1=O)c1ccsc1 (centres unmarked) [Example 32, Thiophen-3-carboxylic acid (2-oxo-5-phenyl-2,3-dihydro-1H-benzo[e][1,4]diazepin-3-yl)-amide] — 2.5-fold lower, 2 µM
- O=C(NC1N=C(c2ccccc2)c2ccccc2NC1=O)c1ccc(Cl)c(Cl)c1 (centres unmarked) [Example 21, 3,4-Dichloro-N-(2-oxo-5-phenyl-2,3-dihydro-1H-benzo[e][1,4]diazepin-3-yl)-benzamide] — within 1.5-fold, 6 µM
- COc1cccc(CC(=O)NC2N=C(c3ccccc3)c3ccccc3NC2=O)c1 (centres unmarked) [Example 61, 2-(3-Methoxy-phenyl)-N-(2-oxo-5-phenyl-2,3-dihydro-1H-benzo[e][1,4]diazepin-3-yl)-acetamide] — 1.7-fold lower, 3 µM
- O=C(Nc1ccccc1[N+](=O)[O-])NC1N=C(c2ccccc2)c2ccccc2NC1=O (centres unmarked) [Example 69, 1-(2-Nitro-phenyl)-3-(2-oxo-5-phenyl-2,3-dihydro-1H-benzo[e][1,4]diazepin-3-yl)-urea] — 3.3-fold lower, 1.5 µM
- O=C(NC1N=C(c2ccccc2)c2ccccc2NC1=O)c1cccc(C(F)(F)F)c1 (centres unmarked) [Example 12, N-(2-Oxo-5-phenyl-2,3-dihydro-1H-benzo[e][1,4]diazepin-3-yl)-3-trifluoromethyl-benzamide] — 2-fold lower, 2.5 µM
- CCN(CC)C(=O)NC1N=C(c2ccccc2)c2ccccc2NC1=O (centres unmarked) [Example 2, 1,1-Diethyl-3-(2-oxo-5-phenyl-2,3-dihydro 1H-benzo[e][1,4]diazepin-3-yl)-urea] — within 1.5-fold, 4 µM
- CCCC(=O)NC1N=C(c2ccccc2)c2ccccc2NC1=O (centres unmarked) [Example 4, N-(2-Oxo-5-phenyl-2,3-dihydro-1H-benzo[e][1,4]diazepin-3-yl)-butyramide] — the same, 5 µM
- O=C(Nc1ccccc1F)N[C@H]1N=C(c2ccccc2)c2ccccc2NC1=O [Example 73b, (S)-1-(2-Fluoro-phenyl)-3-(2-oxo-5-phenyl-2,3-dihydro-1H-benzo[e][1,4]diazepin-3-yl)-urea] — 7.1-fold lower, 0.7 µM
- COc1ccccc1C(=O)NC1N=C(c2ccccc2)c2cc(Cl)ccc2NC1=O (centres unmarked) [Example 57, N-(7-Chloro-2-oxo-5-phenyl-2,3-dihydro-1H-benzo[e][1,4]diazepin-3-yl)-2-methoxy-benzamide] — 7.1-fold lower, 0.7 µM
- O=C1Nc2ccccc2C(c2ccccc2)=NC1NCc1ccccc1C(F)(F)F (centres unmarked) [Example 47, 5-Phenyl-3-(2-trifluoromethyl-benzylamino) 1,3-dihydro-benzo[e][1,4]diazepin-2-one] — 6-fold higher, 30 µM
- O=C(NC1N=C(c2ccccc2)c2cc(Cl)ccc2NC1=O)c1cccs1 (centres unmarked) [Example 55, Thiophene-2-carboxylic acid (7-chloro-2-oxo-5-phenyl-2,3-dihydro-1H-benzo[e][1,4]diazepin-3-yl)-amide] — 1.7-fold lower, 3 µM
- O=C(NC1N=C(c2ccccc2)c2ccccc2NC1=O)c1ccco1 (centres unmarked) [Example 15, Furan-2-carboxylic acid (2-oxo-5-phenyl-2,3-dihydro-1H-benzo[e][1,4]diazepin-3-yl)-amide] — 5-fold lower, 1 µM
- CS(=O)(=O)NC1N=C(c2ccccc2)c2ccccc2NC1=O (centres unmarked) [Example 35, N-(2-Oxo-5-phenyl-2,3-dihydro-1H-benzo[e][1,4]diazepin-3-yl)methanesulfonamide] — within 1.5-fold, 6 µM
- O=C(NC1N=C(c2ccccc2)c2ccccc2NC1=O)c1ccccc1 (centres unmarked) [Example 13, N-(2-Oxo-5-phenyl-2,3-dihydro-1H-benzo[e][1,4]diazepin-3-yl)-benzamide] — 3.3-fold lower, 1.5 µM
- O=C1Nc2ccccc2C(c2ccccc2)=NC1NS(=O)(=O)c1ccccc1Br (centres unmarked) [Example 38, 2-Bromo-N-(2-oxo-5-phenyl-2,3-dihydro-1H-benzo[e][1,4]diazepin-3-yl)-benzenesulfonamide] — within 1.5-fold, 6 µM
- COc1cc([N+](=O)[O-])ccc1C(=O)N[C@H]1N=C(c2ccccc2)c2ccccc2NC1=O [Example 27b, (S)-2-Methoxy-4-nitro-N-(2-oxo-5-phenyl-2,3-dihydro-1H-benzo[e][1,4]diazepin-3-yl)-benzamide] — lower, < 0.3 µM
- O=C1Nc2ccccc2C(c2ccccc2)=NC1NCc1ccccc1[N+](=O)[O-] (centres unmarked) [Example 42, 3-(2-Nitro-benzylamino)-5-phenyl-1,3-dihydro-benzo[e][1,4]diazepin-2-one] — 4-fold higher, 20 µM
- O=C(NC1N=C(c2ccccc2)c2cc(Cl)ccc2NC1=O)c1ccco1 (centres unmarked) [Example 54, Furan-2-carboxylic acid (7-chloro-2-oxo-5-phenyl-2,3-dihydro-1H-benzo[e][1,4]diazepin-3-yl)-amide] — 3.3-fold lower, 1.5 µM
- Cc1ccc(NC(=O)NC2N=C(c3ccccc3)c3ccccc3NC2=O)cc1 (centres unmarked) [Example 72, 1-(2-oxo-5-phenyl-2,3-dihydro-1H-benzo[e][1,4]diazepin-3-yl)-3-p-tolyl-urea] — 3.3-fold lower, 1.5 µM
- COc1cc([N+](=O)[O-])ccc1C(=O)NC1N=C(c2ccccc2)c2ccccc2NC1=O (centres unmarked) [Example 27a, 2-Methoxy-4-nitro-N-(2-oxo-5-phenyl-2,3-dihydro-1H-benzo[e][1,4]diazepin-3-yl)-benzamide] — 17-fold lower, 0.3 µM
- O=C(NC1N=C(c2ccccc2)c2ccccc2NC1=O)c1csc2ccccc12 (centres unmarked) [Example 28, Benzo[b]thiophene-3-carboxylic acid (2-oxo-5-phenyl-2,3-dihydro-1H-benzo[e][1,4]diazepin-3-yl)-amide] — the same, 5 µM
- CC(C)C(=O)NC1N=C(c2ccccc2)c2ccccc2NC1=O (centres unmarked) [Example 5, N-(2-Oxo-5-phenyl-2,3-dihydro-1H-benzo[e][1,4]diazepin-3-yl)-isobutyramide] — 2-fold lower, 2.5 µM
- CN1CCN(C(=O)NC2N=C(c3ccccc3)c3ccccc3NC2=O)CC1 (centres unmarked) [Example 20, 4-Methyl-piperazine-1-carboxylic acid-(2-oxo-5-phenyl-2,3-dihydro-1H-benzo[e][1,4]diazepin-3-yl)-amide] — 5-fold higher, 25 µM
- O=C(NC1N=C(c2ccccc2)c2ccccc2NC1=O)c1ccccc1Cl (centres unmarked) [Example 25, 2-Chloro-N-(2-oxo-5-phenyl-2,3-dihydro-1H-benzo[e][1,4]diazepin-3-yl)-benzamide] — 2.5-fold lower, 2 µM
- CCC(=O)NC1N=C(c2ccccc2)c2ccccc2NC1=O (centres unmarked) [Example 3, N-(2-Oxo-5-phenyl-2,3-dihydro-1H-benzo[e][1,4]diazepin-3-yl)-propionamide] — 2-fold lower, 2.5 µM
- O=C(NC1N=C(c2ccccc2)c2ccccc2NC1=O)c1cc2ccccc2s1 (centres unmarked) [Example 31, Benzo[b]thiophene-2-carboxylic acid (2-oxo-5-phenyl-2,3-dihydro-1H-benzo[e][1,4]diazepin-3-yl)-amide] — the same, 5 µM
- O=C(NC1N=C(c2ccccc2)c2ccccc2NC1=O)c1ccc([N+](=O)[O-])cc1 (centres unmarked) [Example 18, 4-Nitro-N-(2-oxo-5-phenyl-2,3-dihydro-1H-benzo[e][1,4]diazepin-3-yl)-benzamide] — 2.5-fold lower, 2 µM
- O=C(Cc1ccccc1C(F)(F)F)NC1N=C(c2ccccc2)c2ccccc2NC1=O (centres unmarked) [Example 65, N-(2-Oxo-5-phenyl-2,3-dihydro-1H-benzo[e][1,4]diazepin-3-yl)-2-(2-trifluoromethyl-phenyl)-acetamide] — 2.5-fold lower, 2 µM
- CC(C)(C)C(=O)NC1N=C(c2ccccc2)c2ccccc2NC1=O (centres unmarked) [Example 6, 2,2-Dimethyl-N-(2-Oxo-5-phenyl-2,3-dihydro-1H-benzo[e][1,4]diazepin-3-yl)-propionamide] — within 1.5-fold, 6 µM
- CC(=O)NC1N=C(c2ccccc2)c2cc(Cl)ccc2NC1=O (centres unmarked) [Example 51, N-(7-Chloro-2-oxo-5-phenyl-2,3-dihydro-1H-benzo[e][1,4]diazepin-3-yl)-acetamide] — the same, 5 µM
